{"source": "patent US10888541B2", "about": "“Method and compositions for treatment and prevention of broad spectrum virus ailments comprising a calcium channel blocker or a calmodulin blocker” (DR. KENNETH ADAMS MEDICINE PROFESSIONAL CORPORATION, priority 2009, dated 2021)", "key": {"cold sores": {"system": "cold sores", "test": "Case reports: recurrent cold sores, topical application", "assay_type": "in vivo, human", "details": "Patient A, 100 mg/ml topically"}, "Genital Herpes": {"system": "Genital Herpes", "test": "Case report: recurrent Genital Herpes", "assay_type": "in vivo, human", "from_the_text": "Patient with a long history of recurrent Genital Herpes was using Diltiazem."}, "[1]": {"test": "Case report: Rheumatoid Arthritis of the hands, topical ointment", "details": "for pain in hand: person, within hours of applying; for mobility of joints: sustained applications over several days"}, "HIV": {"system": "HIV", "test": "Case report: HIV patient, T4 helper counts", "assay_type": "in vivo, human", "details": "240 mg (120 mg of verapamilSR) twice daily for 2 weeks"}, "[2]": {"test": "Case report: fever, chills, muscle aches, nausea and diarrhea", "assay_type": "in vivo, human", "details": "person; 120 mg tablets every 8 hours; within one hour of first tablet", "from_the_text": "A person with a three day history of fever, chills, muscle aches and nausea. On the second and third days the patient developed increasing diarrhea. On the morning of the third day the patient was experiencing loose, watery stools with a cramps and lower abdominal pain."}, "Herpes Zoster infection": {"system": "Herpes Zoster infection", "test": "Case report: Herpes Zoster infection", "assay_type": "in vivo, human", "details": "elderly patient; 120 mg SR twice daily", "from_the_text": "Elderly patient with Herpes Zoster infection on the upper left abdomen."}, "[3]": {"test": "Case report: latex glove allergy (delayed hypersensitivity reaction)", "assay_type": "in vivo, human", "from_the_text": "A person surgeon with a latex glove allergy. Symptoms of a red eczematous rash develops when they use latex gloves."}, "[4]": {"system": "viral upper respiratory infection", "test": "Case report: viral upper respiratory infection, intranasal/throat spray", "source_text": "person with symptoms of viral upper respiratory infection started experiencing nasal congestion and nasal discharge."}}, "data": [{"smiles": "COc1ccc([C@@H]2Sc3ccccc3N(CCN(C)C)C(=O)[C@@H]2OC(C)=O)cc1", "note": "[Diltiazem, diltiazem]", "values": [{"measurement": "cold sore infection when applied in the initial tingling phase", "setting": "cold sores", "value": "the infection could be prevented"}, {"measurement": "severity and size of cold sore when application delayed until eruption visible", "setting": "cold sores", "value": "minimize the severity, reduce the size"}, {"measurement": "time to complete healing clearance", "setting": "cold sores; application delayed until eruption visible, usual 7 days", "value": "2 to 4", "unit": "days"}, {"measurement": "frequency of genital herpes recurrences", "setting": "Genital Herpes; after starting treatment, before: several episodes per year", "value": "1-2 episodes per year"}, {"measurement": "size and healing of genital herpes episodes", "setting": "Genital Herpes; when on treatment", "value": "much smaller and seemed to heal much quicker"}, {"measurement": "pain in hand", "setting": "[1]", "value": "significant reduction of pain in their hand"}, {"measurement": "mobility of joints", "setting": "[1]", "value": "improved mobility of joints"}]}, {"smiles": "COc1ccc(CCN(C)CCCC(C#N)(c2ccc(OC)c(OC)c2)C(C)C)cc1OC", "note": "(centres unmarked) [Verapamil, verapamil]", "values": [{"measurement": "T4 helper counts", "setting": "HIV", "value": "significant rise in T4 helper counts"}, {"measurement": "abdominal cramping, stools and diarrhea", "setting": "[2]", "value": "abdominal cramping began subsiding and their stools began to become more formed and diarrhea improved"}, {"measurement": "pain, rash and healing of lesions", "setting": "Herpes Zoster infection", "value": "reduced pain, reduced rash and rapid healing of lesions"}, {"measurement": "chronic rash from daily exposure to latex", "setting": "[3]; 200 mg/ml ointment", "value": "improved within hours"}, {"measurement": "delayed hypersensitivity reaction to latex gloves", "setting": "[3]; 200 mg/ml ointment applied prior to wearing latex gloves", "value": "prevented"}, {"measurement": "pain in hand", "setting": "[1]", "value": "significant reduction of pain in their hand"}, {"measurement": "mobility of joints", "setting": "[1]", "value": "improved mobility of joints"}, {"measurement": "time until nasal discharge stopped", "setting": "[4]; 0.2 ml of 2 mg/ml sprayed into each nostril and back of throat", "value": "approximately 20 minutes"}, {"measurement": "upper respiratory symptoms", "setting": "[4]; next day, after repeated 0.1 ml applications intranasally and to throat", "value": "cleared"}, {"measurement": "nasal congestion and nasal discharge", "setting": "[4]; person, 0.2 ml of 2 mg/ml sprayed into each nostril and back of throat, within minutes", "value": "reduction in nasal congestion and decreased nasal discharge"}]}]}
